US20250101025A1, “NOVEL PLK1 DEGRADATION INDUCING COMPOUND” (UPPTHERA, INC., priority 2021, published 2025)
Like-named read-outs stand apart in the source and are kept apart here.

Columns and labels:
Type in all cases: cell-based
[1] = biological target: T1, PLK1 (Homo sapiens, UniProt P53350); test: Luciferase assay for PLK1 in HeLa LgBit (Plk1-HiBit KI) cell line; conditions: compound 300 nM, luminescence after 9 hours
T1 construct: endogenous in cells; host or cells: HeLa LgBit (Plk1-HiBit KI): HeLa stably expressing LgBit, with HiBit knocked in at the endogenous Plk1 locus by CRISPR/Cas9
T1 sequence (P53350 whole entry): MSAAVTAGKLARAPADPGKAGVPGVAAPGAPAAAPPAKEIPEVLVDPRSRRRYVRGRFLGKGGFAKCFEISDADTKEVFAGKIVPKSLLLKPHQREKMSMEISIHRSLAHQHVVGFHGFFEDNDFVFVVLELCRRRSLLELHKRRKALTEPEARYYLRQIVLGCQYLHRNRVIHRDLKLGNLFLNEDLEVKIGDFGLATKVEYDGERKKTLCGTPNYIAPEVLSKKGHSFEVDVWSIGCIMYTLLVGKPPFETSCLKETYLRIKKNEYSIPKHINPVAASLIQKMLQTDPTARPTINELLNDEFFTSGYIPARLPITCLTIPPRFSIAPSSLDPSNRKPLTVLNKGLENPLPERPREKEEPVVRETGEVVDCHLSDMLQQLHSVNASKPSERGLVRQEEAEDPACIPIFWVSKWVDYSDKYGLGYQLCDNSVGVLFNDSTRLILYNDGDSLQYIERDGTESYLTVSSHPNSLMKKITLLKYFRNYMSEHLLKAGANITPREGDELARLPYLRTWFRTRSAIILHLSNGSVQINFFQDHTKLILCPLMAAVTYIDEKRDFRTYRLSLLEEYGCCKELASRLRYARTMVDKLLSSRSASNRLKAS
Method: 2. Luciferase Assay for PLK1
(1) Preparation and Culture of HeLa LgBit (Plk1-HiBit KI) Cell Line
A HeLa cell line in which the LgBit vector was transfected and expressed stably was prepared. Then, after constructing gRNA and donor to express the HiBit amino acid sequence behind the C-terminal of the Plk1 gene, which was inherent in the cell, it was inserted into the cell together with a vector capable of expressing CRISPR/Cas9. Only the cells in which the insertion was completed and knock-in had progressed were selected, sub-cultured and used.
(2) Treatment of Compounds of the Present Invention and Method of Luciferase Assay
In the case of HeLa LgBit (Plk1-HiBit KI), the compounds were treated after being released after thymidine block, and the process was as follows. Thymidine (Sigma-Aldrich Cat. No. T9250-5G) was completely dissolved in DW and used in the experiment. For thymidine block, the products were treated with 2 mM of thymidine and then incubated for 24 hours. For release and chemical treatment, the medium was suctioned and washed with 1×PBS. TrypLE™ was added and incubated in 37° C. CO2 incubator for 5 min. Cells neutralized by adding complete media were counted through a counter. For each well of a 96-well culture plate (SPL), 3.3×10^4 cells and a total medium volume of 150 μL were seeded and incubated in a CO2 incubator.
Each cell line was incubated in a CO2 incubator for 18 hours, and Endurazine was added to each well to make up 4% of the total volume. After adding the compound of the present invention in a 96-well white plate (SPL) to a concentration of 300 nM, the wavelength of the plate reader (BMG Labtech, CLARIOstar Plus) was set to […], and then the luminescence was tracked in real time.
In Table 2, Activity represents the ratio of the luminescence value of each Exemplary Compound treatment group to DMSO treatment group (+++: <0.3, ++<0.6, +<0.7).

[2] = tested on: H526 cell line; test: Cell viability assay for NCI-H526 cell line (EZ-Cytox); conditions: Homo sapiens, NCI-H526, 120 h; H526 cells, 3-fold dilutions 3000 nM to 0.46 nM, 5 days
Method: (1) Culture of NCI-H526 Cell Line
(2) Treatment of Compounds of the Present Invention and Method of Cell Viability Assay
After treating the compound to each well to make the total volume of 200 μL, it was cultured in a CO2 incubator (Thermo Fisher Science, Cat. No. 4111) for 5 days.
The absorbance of the completely cultured sample was measured by setting the wavelength of a plate reader (BMG Labtech, CLARIOstar Plus) to […], and was measured after shaking for 3 minutes in a plate reader before measurement.
In Table 3, Activity represents IC50 value of each Exemplary Compound treatment group to H526 cell line (A: <30 nM, B: <50 nM, C: <100 nM, D: <200 nM, E: <400 nM).

[3] = tested on: MRC-5 cell line; test: Cell viability assay for MRC-5 cell line (EZ-Cytox cytotoxicity experiment); conditions: Homo sapiens, MRC5, 120 h, MRC-5 normal cell line, 5 days
Method: 4. Cell Viability Assay for MRC-5 Cell Line
(1) Culture of MRC-5 Cell Line
Passage of cultured cells was maintained within P15.
(2) Treatment of Compounds of the Present Invention
Then, it was cultured in 37° C.
(3) Cytotoxicity Experiment
CO2 incubator for 4 hours.

[4] = highest concentration 10000 nM, N.D. = no cytotoxicity until 10 μM, read-out: Activity: IC50 value to MRC-5 cell line, N.D. cells
[5] = 3-fold dilutions 10000 nM to 1.52 nM, Exemplary Compounds, numeric values, read-out: Activity: IC50 value (nM) to MRC-5 cell line

| Activity: ratio of the luminescence value of each Exemplary Compound treatment group to DMSO treatment group [1] | Structure (SMILES) | IC50 [2] | IC50 [3, 4] | IC50 [3, 5] |
| --- | --- | --- | --- | --- |
| ++ (++<0.6) | COc1cc(C(=O)NC2CC3(CCN(CC4CCN(c5cccc6c5n(C)c(=O)n6C5CCC(=O)NC5=O)CC4)CC3)C2)ccc1Nc1ncc2c(n1)N(C(C)C)CC(F)(F)C(=O)N2C (stereo not drawn) [Compound 38, 4-((7,7-difluoro-9-isopropyl-5-methyl-6-oxo-6,7,8,9-tetrahydro-5H-pyrimido[4,5-b][1,4]diazepin-2-yl)amino)-N-(7-((1-(1-(2,6-dioxopiperidin-3-yl)-3-methyl-2-oxo-2,3-dihydro-1H-benzo[d]imidazol-4-yl)piperidin-4-yl)methyl)-7-azaspiro[3.5]nonan-2-yl)-3-methoxybenzamide] | < 0.03 µM |  | 3960 nM |
| +++ (+++: <0.3) | COc1cc(C(=O)NC2CCC(N(C)CC3CCN(c4ccc(NC5CCC(=O)NC5=O)cc4F)CC3)CC2)ccc1Nc1ncc2c(n1)N(C1CCCC1)CC(F)(F)C(=O)N2C (stereo not drawn) [Compound 34, 4-((9-cyclopentyl-7,7-difluoro-5-methyl-6-oxo-6,7,8,9-tetrahydro-5H-pyrimido[4,5-b][1,4]diazepin-2-yl)amino)-N-((1r,4r)-4-(((1-(4-((2,6-dioxopiperidin-3-yl)amino)-2-fluorophenyl)piperidin-4-yl)methyl)(methyl)amino)cyclohexyl)-3-methoxybenzamide] | < 0.03 µM | > 10000 nM |  |
| ++ (++<0.6) | COc1cc(C(=O)NN2CCC(N3CC4(CCN(c5ccc(NC6CCC(=O)NC6=O)cc5F)CC4)C3)CC2)ccc1Nc1ncc2c(n1)N(C(C)C)CC(F)(F)C(=O)N2C (stereo not drawn) [Compound 32, 4-((7,7-difluoro-9-isopropyl-5-methyl-6-oxo-6,7,8,9-tetrahydro-5H-pyrimido[4,5-b][1,4]diazepin-2-yl)amino)-N-(4-(7-(4-((2,6-dioxopiperidin-3-yl)amino)-2-fluorophenyl)-2,7-diazaspiro[3.5]nonan-2-yl)piperidin-1-yl)-3-methoxybenzamide] | < 0.05 µM | > 10000 nM |  |
| ++ (++<0.6) | COc1cc(C(=O)NC2CC3(CCN(CC4CCN(c5ccc(NC6CCC(=O)NC6=O)cc5)CC4)CC3)C2)ccc1Nc1ncc2c(n1)N(C(C)C)CC(F)(F)C(=O)N2C (stereo not drawn) [Compound 28, 4-((7,7-difluoro-9-isopropyl-5-methyl-6-oxo-6,7,8,9-tetrahydro-5H-pyrimido[4,5-b][1,4]diazepin-2-yl)amino)-N-(7-((1-(4-((2,6-dioxopiperidin-3-yl)amino)phenyl)piperidin-4-yl)methyl)-7-azaspiro[3.5]nonan-2-yl)-3-methoxybenzamide] | < 0.03 µM |  | 10200 nM |
| + (+<0.7) | COc1cc(C(=O)NN2CCC(CN3CCN(c4c(F)cc(NC5CCC(=O)NC5=O)cc4F)CC3)CC2)ccc1Nc1ncc2c(n1)N(C(C)C)CC(F)(F)C(=O)N2C (stereo not drawn) [Compound 18, 4-((7,7-difluoro-9-isopropyl-5-methyl-6-oxo-6,7,8,9-tetrahydro-5H-pyrimido[4,5-b][1,4]diazepin-2-yl)amino)-N-(4-((4-(4-((2,6-dioxopiperidin-3-yl)amino)-2,6-difluorophenyl)piperazin-1-yl)methyl)piperidin-1-yl)-3-methoxybenzamide] | < 0.03 µM | > 10000 nM |  |
| +++ (+++: <0.3) | COc1cc(C(=O)NN2CCC(CCN3CCN(c4ccc(N(C)C5CCC(=O)NC5=O)cc4F)CC3)CC2)ccc1Nc1ncc2c(n1)N(C1CCCC1)CC(F)(F)C(=O)N2C (stereo not drawn) [Compound 23, 4-((9-cyclopentyl-7,7-difluoro-5-methyl-6-oxo-6,7,8,9-tetrahydro-5H-pyrimido[4,5-b][1,4]diazepin-2-yl)amino)-N-(4-(2-(4-(4-((2,6-dioxopiperidin-3-yl)(methyl)amino)-2-fluorophenyl)piperazin-1-yl)ethyl)piperidin-1-yl)-3-methoxybenzamide] | < 0.03 µM | > 10000 nM |  |

The remaining lines, values behind:

| Structure (SMILES) | Activity: ratio of the luminescence value of each Exemplary Compound treatment group to DMSO treatment group [1] | IC50 [2] | IC50 [3, 4] | IC50 [3, 5] |
| --- | --- | --- | --- | --- |
| COc1cc(C(=O)NC2CCN(C(=O)CCN3CCN(c4ccc(N(C)C5CCC(=O)NC5=O)cc4F)CC3)CC2)ccc1Nc1ncc2c(n1)N(C1CCCC1)CC(F)(F)C(=O)N2C (stereo not drawn) [Compound 16, 4-((9-cyclopentyl-7,7-difluoro-5-methyl-6-oxo-6,7,8,9-tetrahydro-5H-pyrimido[4,5-b][1,4]diazepin-2-yl)amino)-N-(1-(3-(4-(4-((2,6-dioxopiperidin-3-yl)(methyl)amino)-2-fluorophenyl)piperazin-1-yl)propanoyl)piperidin-4-yl)-3-methoxybenzamide] | +++ (+++: <0.3) | < 0.03 µM | > 10000 nM |  |
| COc1cc(C(=O)NN2CCC(CN3CCN(c4cccc(C(=O)NC5CCC(=O)NC5=O)c4)CC3)CC2)ccc1Nc1ncc2c(n1)N(C1CCCC1)CC(F)(F)C(=O)N2C (stereo not drawn) [Compound 9, 4-((9-cyclopentyl-7,7-difluoro-5-methyl-6-oxo-6,7,8,9-tetrahydro-5H-pyrimido[4,5-b][1,4]diazepin-2-yl)amino)-N-(4-((4-(3-((2,6-dioxopiperidin-3-yl)carbamoyl)phenyl)piperazin-1-yl)methyl)piperidin-1-yl)-3-methoxybenzamide] | ++ (++<0.6) | < 0.05 µM | > 10000 nM |  |
| COc1cc(C(=O)NN2CCC(CCN3CCN(c4cccc(C(=O)NC5CCC(=O)NC5=O)c4)CC3)CC2)ccc1Nc1ncc2c(n1)N(C1CCCC1)CC(F)(F)C(=O)N2C (stereo not drawn) [Compound 10, 4-((9-cyclopentyl-7,7-difluoro-5-methyl-6-oxo-6,7,8,9-tetrahydro-5H-pyrimido[4,5-b][1,4]diazepin-2-yl)amino)-N-(4-(2-(4-(3-((2,6-dioxopiperidin-3-yl)carbamoyl)phenyl)piperazin-1-yl)ethyl)piperidin-1-yl)-3-methoxybenzamide] | ++ (++<0.6) | < 0.03 µM | > 10000 nM |  |
| COc1cc(C(=O)NN2CCC(CCN3CCN(c4cccc(C(=O)NC5CCC(=O)NC5=O)c4)CC3)C2)ccc1Nc1ncc2c(n1)N(C1CCCC1)CC(F)(F)C(=O)N2C (stereo not drawn) [Compound 11, 4-((9-cyclopentyl-7,7-difluoro-5-methyl-6-oxo-6,7,8,9-tetrahydro-5H-pyrimido[4,5-b][1,4]diazepin-2-yl)amino)-N-(3-(2-(4-(3-((2,6-dioxopiperidin-3-yl)carbamoyl)phenyl)piperazin-1-yl)ethyl)pyrrolidin-1-yl)-3-methoxybenzamide] | ++ (++<0.6) | < 0.03 µM | > 10000 nM |  |
| COc1cc(C(=O)NC2CCN(C(=O)CCN3CCN(c4cccc(N(C)C5CCC(=O)NC5=O)c4)CC3)CC2)ccc1Nc1ncc2c(n1)N(C1CCCC1)CC(F)(F)C(=O)N2C (stereo not drawn) [Compound 15, 4-((9-cyclopentyl-7,7-difluoro-5-methyl-6-oxo-6,7,8,9-tetrahydro-5H-pyrimido[4,5-b][1,4]diazepin-2-yl)amino)-N-(1-(3-(4-(3-((2,6-dioxopiperidin-3-yl)(methyl)amino)phenyl)piperazin-1-yl)propanoyl)piperidin-4-yl)-3-methoxybenzamide] | ++ (++<0.6) | < 0.05 µM | > 10000 nM |  |
